# Legend:
# [1] = tested on: LL-37 release from human gingival epithelial cells; assay: Induction of anti-microbial peptides: LL-37 ELISA of supernatants; format: cell-based; conditions: for LL-37 (ng/ml) at 0.05% after 16 hrs: 0.05% test compound; for LL-37 (ng/ml) at 0.1% after 4 hrs: 0.1% test compound
# [2] = Vitro-Skin assay of potential uptake in skin; format: in vitro ADME
# From the text: Using a commercial Vitro-Skin® assay to measure potential uptake in skin, we see uptake from all the formulations, but have better uptake in the Dical formulation than in the silica/SLS formulation (units in micrograms/cm^2): • 0.2% THDG/CDC: 4.9 • 0.2% THDG/HSLS: 0.6 • 0.2% CHDG/CDC: 4.4 • 0.2% CHDG/[…] • 0.3% Triclosan (positive control): 7.7
# [3] = Stability/discoloration of THDG and CHDG (neat, solution, saliva, dentifrice); format: physicochemical; conditions: for stability in saliva (discoloration): 24 h at 37° C., subject specific, saliva pH 6.5-8; for discoloration in dentifrice, CDC base: in 2 weeks; for Stability of neat materials: neat powders; for discoloration of solutions in DMSO/water: pH 6.1-6.5, after 4M at RT; for discoloration in dentifrice, silica base: in 1 week
# [4] = tested on: β-defensin release from human gingival epithelial cells; assay: Induction of anti-microbial peptides: β-defensin ELISA of supernatants; format: cell-based; conditions: 0.1% test compound
# [5] = tested on: Actinomyces viscosus (ATCC # 43146); assay: Antibacterial growth inhibition (GI) assay; format: cell-based; conditions: 100 ppm, OD610 at 2, 4, 6, 24 h
# Description: An overnight culture of Actinomyces viscosus (ATCC # 43146) is diluted to an OD610˜0.2 in sterile trypticase soy broth (TSB) Nine mls of diluted Actinomyces viscosus is added to triplicate 15 mls sterile culture tubes for each sample or control tested. One ml of each analog was added to the corresponding culture tube and briefly vortexed. Cultures are incubated at 37° C. in a shaking water bath. Supernatants are removed at 2, 4, 6, and 24 h and the OD610 read. Results from triplicate samples were averaged and growth is plotted as a function of time.
# LL-37 production = conditions: natural products with only one 1,2,3-trihydroxybenzene ring; cited from earlier work
compound,measurement,setting,value
"O=C(O[C@@H]1CCCC[C@H]1OC(=O)c1cc(O)c(O)c(O)c1)c1cc(O)c(O)c(O)c1 (relative stereo) [THDG, trans-1,2 cyclohexanediol digallate]",LL-37 (ng/ml) at 0.05% after 16 hrs,[1],5900 ng/mL
same,LL-37 (ng/ml) at 0.1% after 4 hrs,[1],4100 ng/mL
same,uptake in Vitro-Skin from CDC formulation,[2]; 0.2 %,4.9 micrograms/cm^2
same,uptake in Vitro-Skin from HSLS formulation,[2]; 0.2 %,0.6 micrograms/cm^2
same,stability in saliva (discoloration),[3],no discoloration to deep green discoloration
same,"discoloration in dentifrice, CDC base",[3]; CDC base,slight discoloration
same,Stability of neat materials,[3],short term shelf stability acceptable
same,discoloration of solutions in DMSO/water,[3],no discoloration
same,"discoloration in dentifrice, silica base",[3]; silica base,moderate discoloration
same,β-defensin (ng/ml) at 0.1% after 4 hrs,[4],280 ng/mL
"O=C(N[C@@H]1CCCC[C@H]1NC(=O)c1cc(O)c(O)c(O)c1)c1cc(O)c(O)c(O)c1 (relative stereo) [THDGA, trans-1,2-cyclohexane digallamide]",LL-37 (ng/ml) at 0.05% after 16 hrs,[1],130 ng/mL
same,LL-37 (ng/ml) at 0.1% after 4 hrs,[1],100 ng/mL
same,β-defensin (ng/ml) at 0.1% after 4 hrs,[4],1.5 ng/mL
CCCCOC(=O)c1cc(O)c(O)c(O)c1 [BG],LL-37 (ng/ml) at 0.05% after 16 hrs,[1],50 ng/mL
same,LL-37 (ng/ml) at 0.1% after 4 hrs,[1],100 ng/mL
same,β-defensin (ng/ml) at 0.1% after 4 hrs,[4],0 ng/mL
"O=C(O[C@H]1CCCC[C@H]1OC(=O)c1cc(O)c(O)c(O)c1)c1cc(O)c(O)c(O)c1 [CHDG, cis-1,2-cyclohexanediol digallate]",LL-37 (ng/ml) at 0.05% after 16 hrs,[1],3700 ng/mL
same,LL-37 (ng/ml) at 0.1% after 4 hrs,[1],5200 ng/mL
same,stability in saliva (discoloration),[3],no discoloration to deep green discoloration
same,"discoloration in dentifrice, CDC base",[3]; CDC base,slight discoloration
same,Stability of neat materials,[3],short term shelf stability acceptable
same,discoloration of solutions in DMSO/water,[3],no discoloration
same,"discoloration in dentifrice, silica base",[3]; silica base,moderate discoloration
same,β-defensin (ng/ml) at 0.1% after 4 hrs,[4],150 ng/mL
"O=C(N[C@H]1CCCC[C@H]1NC(=O)c1cc(O)c(O)c(O)c1)c1cc(O)c(O)c(O)c1 [CHDGA, cis-1,2-cyclohexane digallamide]",LL-37 (ng/ml) at 0.05% after 16 hrs,[1],120 ng/mL
same,LL-37 (ng/ml) at 0.1% after 4 hrs,[1],100 ng/mL
same,β-defensin (ng/ml) at 0.1% after 4 hrs,[4],0.7 ng/mL
"O=C(O[C@H]1CCC[C@H]1OC(=O)c1cc(O)c(O)c(O)c1)c1cc(O)c(O)c(O)c1 [CPDG, cis-1,2-cyclopentanediol digallate]",LL-37 (ng/ml) at 0.05% after 16 hrs,[1],160 ng/mL
same,LL-37 (ng/ml) at 0.1% after 4 hrs,[1],120 ng/mL
same,β-defensin (ng/ml) at 0.1% after 4 hrs,[4],0.5 ng/mL
"O=C(O[C@@H]1Cc2c(O)cc(O)cc2O[C@@H]1c1cc(O)c(O)c(O)c1)c1cc(O)c(O)c(O)c1 [EGCG, epigallocatechin gallate, reference compound]",antibacterial activity in bacterial culture,[5],modest antibacterial activity
same,LL-37 (ng/ml) at 0.05% after 16 hrs,[1]; listed as EGCG (source Kenko),15 ng/mL
same,LL-37 (ng/ml) at 0.05% after 16 hrs,[1]; listed as EGCG (source TeaVigo),20 ng/mL
same,LL-37 (ng/ml) at 0.1% after 4 hrs,[1],160 ng/mL
same,"time to discoloration in dentifrice, CDC base",[3]; CDC base,2 days
same,time to discoloration of solution in DMSO/water,"[3]; same conditions: DMSO/water, RT",< 1 week
same,"time to discoloration in dentifrice, silica base",[3]; silica base,2 days
same,β-defensin (ng/ml) at 0.1% after 4 hrs,[4],4.3 ng/mL
"Oc1cc(Cl)ccc1Oc1ccc(Cl)cc1Cl [Triclosan, triclosan, reference compound]","uptake in Vitro-Skin, positive control",[2]; 0.3% Triclosan,7.7 micrograms/cm^2
Oc1cc(O)c2c(c1)O[C@H](c1cc(O)c(O)c(O)c1)[C@H](O)C2 [epigallocatechin],potency in LL-37 production compared with EGCG,LL-37 production,significantly less potent
catechin gallate,potency in LL-37 production compared with EGCG,LL-37 production,significantly less potent
